Measured values published in patent US9096593B2, “Compounds and methods for kinase modulation, and indications therefor” (Plexxikon Inc., priority 2009, dated 2015).
pIC50: −log10 of the molar value. Like-named read-outs stand apart in the source and are kept apart here.

Columns and labels:
Assay in all cases: CYP enzyme inhibition, fluorescent substrate
CYP1A2 = CYP1A2 (Homo sapiens (Human), UniProt P05177); settings: human, 15 min
Experimental: (§1) CYP (Cytochrome P450) enzymes are the major drug metabolizing enzymes present in the liver. The inhibition of CYP enzyme activity (IC50) for each of CYP1A2, CYP2C19, CYP2C9, CYP2D6, CYP3A4(BFC) and CYP3A4(BQ) is determined for compounds, where inhibition of metabolism of a known substrate leads to a decrease in the fluorescence of the metabolized product. The fluorescence of the product is monitored as a function of compound concentration.
(§2) Compounds are dissolved in DMSO to a concentration of 100 mM. These are diluted 1 μL into 82 μL of acetonitrile. An 11 μL aliquot of this solution is then added to 204 μL of cofactor mix (1.3% NADPH Regeneration system Solution A, 1.04% NADPH Regeneration system Solution B from BD Biosciences, 5% acetonitrile and 0.05% DMSO). These are then serially diluted 1:1 (160 μL to 160 μL co-factor mix) for a total of 10 points. A 10 μL aliquot of this final mixture is dispensed into 384 well assay plates and incubated for 10 minutes at 37° C. Enzyme and substrate mix (10 μL; […] CYP1A2/5 μM CEC; 1.0 μmol CYP2C9/75 μM MFC; […] CYP2C19/25 μM CEC; 1.5 μmol CYP2D6/1.5 μM AMMC; 1.0 μmol CYP3A4/50 μM BFC; or 1.0 μmol CYP3A4/40 μM BQ) is added to these assay plates. Assay plates are incubated at 37° C. (CYP1A2-15 min; CYP2C9-45 min; CYP2C19, 2D6 and 3A4-30 min) and read in a Tecan Safire 2 plate reader (CYP1A2, 2C19 and 3A4 409 ex/460 em; CYP2C9 and 2D6409 ex/530 em). The signal versus compound concentration is used to determine the IC50. The enzymes and substrates for this assay are obtained from BD Biosciences.

CYP2C19 = CYP2C19 (Homo sapiens (Human), UniProt P33261); settings: for IC50: read-out: Cyp IC50 (μM) 2C19
Chain of CYP2C19 (P33261 whole entry): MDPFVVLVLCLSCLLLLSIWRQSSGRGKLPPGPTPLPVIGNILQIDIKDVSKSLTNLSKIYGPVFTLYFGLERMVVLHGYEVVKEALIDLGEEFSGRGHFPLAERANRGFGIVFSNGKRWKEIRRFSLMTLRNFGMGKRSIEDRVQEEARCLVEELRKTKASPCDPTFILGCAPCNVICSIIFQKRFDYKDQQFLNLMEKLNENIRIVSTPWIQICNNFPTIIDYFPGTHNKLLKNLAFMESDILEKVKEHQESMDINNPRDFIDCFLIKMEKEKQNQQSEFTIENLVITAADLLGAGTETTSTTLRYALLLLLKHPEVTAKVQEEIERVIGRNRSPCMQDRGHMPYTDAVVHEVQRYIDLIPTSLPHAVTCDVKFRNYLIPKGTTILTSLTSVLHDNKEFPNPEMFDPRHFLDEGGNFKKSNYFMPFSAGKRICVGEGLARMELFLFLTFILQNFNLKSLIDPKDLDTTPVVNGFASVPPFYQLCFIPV
Experimental: as §1, §2

CYP2C9 = CYP2C9 (Homo sapiens (Human), UniProt P11712); settings: for IC50: read-out: Cyp IC50 (μM) 2C9
Chain of CYP2C9 (P11712 whole entry): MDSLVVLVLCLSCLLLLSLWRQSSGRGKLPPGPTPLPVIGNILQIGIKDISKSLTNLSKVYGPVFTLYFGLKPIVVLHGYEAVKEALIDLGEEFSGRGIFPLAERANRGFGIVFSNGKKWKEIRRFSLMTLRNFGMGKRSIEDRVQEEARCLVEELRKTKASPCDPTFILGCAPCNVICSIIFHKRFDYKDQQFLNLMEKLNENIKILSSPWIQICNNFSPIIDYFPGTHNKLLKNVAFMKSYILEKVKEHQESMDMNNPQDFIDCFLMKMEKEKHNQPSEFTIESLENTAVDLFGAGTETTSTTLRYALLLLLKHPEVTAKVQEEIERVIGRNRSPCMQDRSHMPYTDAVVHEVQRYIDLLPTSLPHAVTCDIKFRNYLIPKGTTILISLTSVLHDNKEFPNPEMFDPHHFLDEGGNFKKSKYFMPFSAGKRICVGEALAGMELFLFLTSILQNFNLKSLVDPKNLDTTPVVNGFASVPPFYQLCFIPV
Experimental: as §1, §2

CYP2D6 = CYP2D6 (Homo sapiens (Human), UniProt P10635); settings: read-out: Cyp IC50 (μM) 2D6
Chain of CYP2D6 (P10635 whole entry): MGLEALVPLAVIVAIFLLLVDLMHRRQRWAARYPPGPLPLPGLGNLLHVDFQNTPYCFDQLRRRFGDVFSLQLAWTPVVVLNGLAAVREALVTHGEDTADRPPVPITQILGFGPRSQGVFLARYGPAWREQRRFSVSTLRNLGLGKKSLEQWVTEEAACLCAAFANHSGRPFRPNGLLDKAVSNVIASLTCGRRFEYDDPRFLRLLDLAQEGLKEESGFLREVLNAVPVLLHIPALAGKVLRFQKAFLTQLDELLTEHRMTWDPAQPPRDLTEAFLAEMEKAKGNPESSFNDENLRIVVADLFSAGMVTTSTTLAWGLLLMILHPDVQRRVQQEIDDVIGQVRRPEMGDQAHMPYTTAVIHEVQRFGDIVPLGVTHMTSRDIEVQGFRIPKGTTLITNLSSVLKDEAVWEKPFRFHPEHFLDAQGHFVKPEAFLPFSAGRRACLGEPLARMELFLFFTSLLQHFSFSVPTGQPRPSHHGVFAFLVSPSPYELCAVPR
Experimental: as §1, §2

CYP3A4(BFC) = CYP3A4(BFC) (Homo sapiens (Human), UniProt P08684); settings: for IC50: read-out: Cyp IC50 (μM) 3A4(BFC), BFC substrate
Chain of CYP3A4(BFC) (P08684 whole entry): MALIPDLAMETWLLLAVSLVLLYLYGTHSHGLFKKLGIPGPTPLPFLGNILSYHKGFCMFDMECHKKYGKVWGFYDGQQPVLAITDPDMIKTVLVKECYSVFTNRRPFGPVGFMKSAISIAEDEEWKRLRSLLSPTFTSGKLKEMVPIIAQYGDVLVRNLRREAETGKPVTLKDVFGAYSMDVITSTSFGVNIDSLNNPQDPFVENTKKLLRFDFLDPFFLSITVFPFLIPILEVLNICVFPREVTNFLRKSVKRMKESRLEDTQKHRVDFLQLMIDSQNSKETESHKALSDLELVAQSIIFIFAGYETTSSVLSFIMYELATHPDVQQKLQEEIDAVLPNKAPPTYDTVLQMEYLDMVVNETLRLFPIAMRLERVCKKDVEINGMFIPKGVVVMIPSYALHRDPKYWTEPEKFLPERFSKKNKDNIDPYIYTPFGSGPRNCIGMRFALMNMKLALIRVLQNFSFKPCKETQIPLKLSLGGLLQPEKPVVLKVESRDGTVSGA
Experimental: as §1, §2

CYP3A4(BQ) = CYP3A4(BQ) (Homo sapiens (Human), UniProt P08684); settings: for IC50: read-out: Cyp IC50 (μM) 3A4(BQ), BQ substrate
Chain of CYP3A4(BQ) (P08684 whole entry): as above
Experimental: as §1, §2

[1] = human, CYP2C9 enzyme (BD Biosciences), 45 min

Chain of CYP1A2 (P05177 whole entry): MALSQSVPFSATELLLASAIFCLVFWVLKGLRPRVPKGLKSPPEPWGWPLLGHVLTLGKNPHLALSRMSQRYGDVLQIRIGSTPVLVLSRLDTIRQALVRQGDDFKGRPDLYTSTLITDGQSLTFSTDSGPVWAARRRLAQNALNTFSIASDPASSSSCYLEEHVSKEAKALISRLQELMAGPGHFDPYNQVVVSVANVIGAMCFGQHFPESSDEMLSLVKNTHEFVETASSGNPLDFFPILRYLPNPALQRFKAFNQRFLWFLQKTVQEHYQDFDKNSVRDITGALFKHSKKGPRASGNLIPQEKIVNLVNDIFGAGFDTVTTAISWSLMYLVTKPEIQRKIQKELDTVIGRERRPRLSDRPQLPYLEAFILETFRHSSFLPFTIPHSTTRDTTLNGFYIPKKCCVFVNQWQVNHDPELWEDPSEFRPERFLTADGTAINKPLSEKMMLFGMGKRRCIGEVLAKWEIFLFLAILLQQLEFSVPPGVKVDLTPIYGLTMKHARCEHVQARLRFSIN

With `COc1ccc(CNc2ncc(Cc3c[nH]c4ncc(C)cc34)cc2F)cn1` [Compound P-1562, [3-Fluoro-5-(5-methyl-1H-pyrrolo[2,3-b]pyridin-3-ylmethyl)-pyridin-2-yl]-(6-methoxy-pyridin-3-ylmethyl)-amine] the pIC50 (CYP1A2) was under 5.00, the IC50 (CYP2C19) was over 10 µM and the IC50 (CYP2C9) was under 5 µM. The IC50 (CYP2D6) was over 10 µM, the pIC50 (CYP3A4(BFC)) was 5.00 to 5.30 and the pIC50 (CYP3A4(BQ)) was 5.00 to 5.30.

In the case of `COc1ccc(CNc2ccc(Cc3c[nH]c4ncc(F)cc34)c(F)n2)cn1` [Compound P-1622, [6-Fluoro-5-(5-fluoro-1H-pyrrolo[2,3-b]pyridin-3-ylmethyl)-pyridin-2-yl]-(6-methoxy-pyridin-3-ylmethyl)-amine], the pIC50 (CYP1A2) was under 5.00, the pIC50 (CYP2C9) was 5.00 to 5.30 and the IC50 (CYP2D6) was over 10 µM. The pIC50 (CYP3A4(BFC)) was 5.00 to 5.30 and the pIC50 (CYP3A4(BQ)) was 5.00 to 5.30.

Work on `COc1ncc(F)cc1CNc1ccc(Cc2c[nH]c3ncc(NC(C)=O)cc23)c(F)n1` [Compound P-1669, N-(3-{2-fluoro-6-[(5-fluoro-2-methoxy-pyridin-3-ylmethyl)-amino]-pyridin-3-ylmethyl}-1H-pyrrolo[2,3-b]pyridin-5-yl)-acetamide] yielded a pIC50 (CYP1A2) of under 5.00, an IC50 (CYP2C19) of over 10 µM and an IC50 (CYP2C9) of under 5 µM. The IC50 (CYP2D6) was over 10 µM and the pIC50 (CYP3A4(BFC)) was 5.00 to 5.30.

For `CS(=O)(=O)Nc1cnc2[nH]cc(Cc3ccc(NCc4ccc(Cl)nc4)nc3F)c2c1` [Compound P-1679, N-(3-{6-[(6-Chloro-pyridin-3-ylmethyl)-amino]-2-fluoro-pyridin-3-ylmethyl}-1H-pyrrolo[2,3-b]pyridin-5-yl)-methanesulfonamide], the pIC50 (CYP1A2) was under 5.00, the pIC50 (CYP2C9; [1]) was over 5.30 and the IC50 (CYP2D6) was over 10 µM. The IC50 (CYP3A4(BFC)) was over 10 µM.

With `Fc1cncc(CNc2ccc(Cc3c[nH]c4ncc(Cl)cc34)c(F)n2)c1` [Compound P-2001, [5-(5-Chloro-1H-pyrrolo[2,3-b]pyridin-3-ylmethyl)-6-fluoro-pyridin-2-yl]-(5-fluoro-pyridin-3-ylmethyl)-amine] the pIC50 (CYP1A2) was under 5.00, the IC50 (CYP2C19) was under 5 µM and the pIC50 (CYP2C9) was 5.00 to 5.30. It also gave an IC50 (CYP2D6) of over 10 µM, a pIC50 (CYP3A4(BFC)) of 5.00 to 5.30 and a pIC50 (CYP3A4(BQ)) of 5.00 to 5.30.

Work on `COc1cnc2[nH]cc(Cc3ccc(NCc4cncc(F)c4)nc3F)c2c1` [Compound P-2028, [6-Fluoro-5-(5-methoxy-1H-pyrrolo[2,3-b]pyridin-3-ylmethyl)-pyridin-2-yl]-(5-fluoro-pyridin-3-ylmethyl)-amine] yielded a pIC50 (CYP1A2) of under 5.00, an IC50 (CYP2C19) of over 10 µM and an IC50 (CYP2C9) of under 5 µM. For the same compound, the IC50 (CYP3A4(BFC)) was under 5 µM and the IC50 (CYP3A4(BQ)) was under 5 µM.

Work on `COc1cnc2[nH]cc(Cc3ccc(NCc4cccnc4OC)nc3F)c2c1` [Compound P-2043, [6-Fluoro-5-(5-methoxy-1H-pyrrolo[2,3-b]pyridin-3-ylmethyl)-pyridin-2-yl]-(2-methoxy-pyridin-3-ylmethyl)-amine] yielded a pIC50 (CYP1A2) of under 5.00, a pIC50 (CYP2C9) of 5.00 to 5.30 and an IC50 (CYP3A4(BFC)) of over 10 µM. For the same compound, the pIC50 (CYP3A4(BQ)) was 5.00 to 5.30.

With `COc1ncccc1CNc1ccc(Cc2c[nH]c3ncccc23)c(F)n1` [Compound P-2045, [6-Fluoro-5-(1H-pyrrolo[2,3-b]pyridin-3-ylmethyl)-pyridin-2-yl]-(2-methoxy-pyridin-3-ylmethyl)-amine] the pIC50 (CYP1A2) was under 5.00, the pIC50 (CYP2C19) was 5.00 to 5.30 and the IC50 (CYP2C9) was over 10 µM. The pIC50 (CYP3A4(BFC)) was 5.00 to 5.30 and the IC50 (CYP3A4(BQ)) was over 10 µM.

Compound `COc1ncccc1CNc1ccc(Cc2c[nH]c3ncc(C)cc23)c(F)n1` [Compound P-2052, [6-Fluoro-5-(5-methyl-1H-pyrrolo[2,3-b]pyridin-3-ylmethyl)-pyridin-2-yl]-(2-methoxy-pyridin-3-ylmethyl)-amine] has a pIC50 (CYP1A2) of under 5.00, a pIC50 (CYP2C9) of 5.00 to 5.30 and an IC50 (CYP2D6) of over 10 µM. For the same compound, the pIC50 (CYP3A4(BFC)) was 5.00 to 5.30 and the pIC50 (CYP3A4(BQ)) was 5.00 to 5.30.

For `COc1ncc(F)cc1CNc1ncc(Cc2c[nH]c3ncc(C)cc23)cn1` [Compound P-2061, (5-Fluoro-2-methoxy-pyridin-3-ylmethyl)-[5-(5-methyl-1H-pyrrolo[2,3-b]pyridin-3-ylmethyl)-pyrimidin-2-yl]-amine], the pIC50 (CYP1A2) was under 5.00, the IC50 (CYP2C19) was over 10 µM and the pIC50 (CYP2C9) was 5.00 to 5.30. For the same compound, the IC50 (CYP2D6) was over 10 µM, the IC50 (CYP3A4(BFC)) was over 10 µM and the pIC50 (CYP3A4(BQ)) was 5.00 to 5.30.

Compound `Cc1cnc2[nH]cc(Cc3ccc(NCc4cnccc4C(F)(F)F)nc3F)c2c1` [Compound P-2062, [6-Fluoro-5-(5-methyl-1H-pyrrolo[2,3-b]pyridin-3-ylmethyl)-pyridin-2-yl]-(4-trifluoromethyl-pyridin-3-ylmethyl)-amine] has a pIC50 (CYP1A2) of under 5.00, an IC50 (CYP2C19) of under 5 µM and an IC50 (CYP2C9) of under 5 µM. For the same compound, the IC50 (CYP2D6) was over 10 µM, the pIC50 (CYP3A4(BFC)) was 5.00 to 5.30 and the pIC50 (CYP3A4(BQ)) was 5.00 to 5.30.

For `FC(F)(F)c1ccncc1CNc1ccc(Cc2c[nH]c3ncc(Cl)cc23)cn1` [Compound P-2063, [5-(5-Chloro-1H-pyrrolo[2,3-b]pyridin-3-ylmethyl)-pyridin-2-yl]-(4-trifluoromethyl-pyridin-3-ylmethyl)-amine], the pIC50 (CYP1A2) was under 5.00, the pIC50 (CYP2C19) was 5.00 to 5.30 and the IC50 (CYP2C9) was over 10 µM. For the same compound, the IC50 (CYP2D6) was over 10 µM, the pIC50 (CYP3A4(BFC)) was 5.00 to 5.30 and the pIC50 (CYP3A4(BQ)) was 5.00 to 5.30.

`COc1ncc(F)cc1CNc1ncc(Cc2c[nH]c3ncc(Cl)cc23)cn1` [Compound P-2064, [5-(5-Chloro-1H-pyrrolo[2,3-b]pyridin-3-ylmethyl)-pyrimidin-2-yl]-(5-fluoro-2-methoxy-pyridin-3-ylmethyl)-amine] showed a pIC50 (CYP1A2) of under 5.00, a pIC50 (CYP2C9) of 5.00 to 5.30 and an IC50 (CYP2D6) of over 10 µM. The IC50 (CYP3A4(BFC)) was over 10 µM and the IC50 (CYP3A4(BQ)) was over 10 µM.

Work on `COc1cc(CNc2ccc(Cc3c[nH]c4ncc(C)cc34)c(F)n2)c(F)cn1` [Compound P-2071, (5-Fluoro-2-methoxy-pyridin-4-ylmethyl)-[6-fluoro-5-(5-methyl-1H-pyrrolo[2,3-b]pyridin-3-ylmethyl)-pyridin-2-yl]-amine] yielded a pIC50 (CYP1A2) of under 5.00, an IC50 (CYP2C19) of over 10 µM and a pIC50 (CYP2C9) of 5.00 to 5.30. The pIC50 (CYP3A4(BFC)) was 5.00 to 5.30 and the pIC50 (CYP3A4(BQ)) was 5.00 to 5.30.

In the case of `Cc1cnc2[nH]cc(Cc3cnc(NCc4ccc(Cl)nc4)nc3)c2c1` [Compound P-2078, (6-Chloro-pyridin-3-ylmethyl)-[5-(5-methyl-1H-pyrrolo[2,3-b]pyridin-3-ylmethyl)-pyrimidin-2-yl]-amine], the pIC50 (CYP1A2; CYP1A2 enzyme (BD Biosciences)) was under 5.00 and the pIC50 (CYP2C9; human, 45 min) was over 5.30.

`COc1ccc(CNc2ccc(Cc3c[nH]c4ncc(C)cc34)c(F)n2)c(OC)n1` [Compound P-2097, (2,6-Dimethoxy-pyridin-3-ylmethyl)-[6-fluoro-5-(5-methyl-1H-pyrrolo[2,3-b]pyridin-3-ylmethyl)-pyridin-2-yl]-amine] showed a pIC50 (CYP1A2) of under 5.00, a pIC50 (CYP2C9; [1]) of over 5.30 and an IC50 (CYP2D6) of over 10 µM. It also gave a pIC50 (CYP3A4(BFC)) of 5.00 to 5.30 and a pIC50 (CYP3A4(BQ)) of 5.00 to 5.30.

`Cc1ccc(CNc2ccc(Cc3c[nH]c4ncc(C)cc34)c(F)n2)nc1` [Compound P-2131, [6-Fluoro-5-(5-methyl-1H-pyrrolo[2,3-b]pyridin-3-ylmethyl)-pyridin-2-yl]-(5-methyl-pyridin-2-ylmethyl)-amine] was tested, and the pIC50 (CYP1A2) was under 5.00, the pIC50 (CYP2C19) was 5.00 to 5.30 and the pIC50 (CYP2C9; [1]) was over 5.30. For the same compound, the IC50 (CYP3A4(BFC)) was under 5 µM and the IC50 (CYP3A4(BQ)) was over 10 µM.

Compound `Cn1cc(F)cc(CNc2ncc(Cc3c[nH]c4ncc(Cl)cc34)cn2)c1=O` [Compound P-2157, 3-{[5-(5-Chloro-1H-pyrrolo[2,3-b]pyridin-3-ylmethyl)-pyrimidin-2-ylamino]-methyl}-5-fluoro-1-methyl-1H-pyridin-2-one] has a pIC50 (CYP1A2) of under 5.00, a pIC50 (CYP2C9; [1]) of under 5.00 and an IC50 (CYP2D6) of over 10 µM. For the same compound, the pIC50 (CYP3A4(BFC)) was 5.00 to 5.30 and the IC50 (CYP3A4(BQ)) was over 10 µM.

`Fc1cc(Cc2c[nH]c3ncc(Cl)cc23)cnc1NCc1ccc(C(F)(F)F)nc1` [Compound P-2172, [5-(5-Chloro-1H-pyrrolo[2,3-b]pyridin-3-ylmethyl)-3-fluoro-pyridin-2-yl]-(6-trifluoromethyl-pyridin-3-ylmethyl)-amine] gave a pIC50 (CYP1A2) of under 5.00, an IC50 (CYP2C19) of under 5 µM and a pIC50 (CYP2C9) of 5.00 to 5.30. It also gave an IC50 (CYP2D6) of over 10 µM and an IC50 (CYP3A4(BFC)) of over 10 µM.

`CCS(=O)(=O)Nc1ccccc1CNc1ccc(Cc2c[nH]c3ncc(C)cc23)c(F)n1` [Compound P-2198, Ethanesulfonic acid (2-{[6-fluoro-5-(5-methyl-1H-pyrrolo[2,3-b]pyridin-3-ylmethyl)-pyridin-2-ylamino]-methyl}-phenyl)-amide] gave a pIC50 (CYP1A2) of under 5.00, an IC50 (CYP2C19) of under 5 µM and a pIC50 (CYP2C9) of 5.00 to 5.30. The IC50 (CYP2D6) was over 10 µM and the IC50 (CYP3A4(BFC)) was under 5 µM.
